Measurements taken from paper PMC9124651, “High-performance thin-layer chromatography in combination with an acetylcholinesterase-inhibition bioassay with pre-oxidation of organothiophosphates to determine neurotoxic effects in storm, waste, and surface water” (Analytical and Bioanalytical Chemistry, 2022).
Values after ≈ are worked out from the molar mass of the structure shown.

What was measured:
[1] = molecular target: T1, AChE from electric eel (Electrophorus electricus) (Electrophorus electricus, UniProt O42275); assay: HPTLC-(Ox)-AChE-I assay, immersion method (plates immersed in AChE solution); assay type: biochemical; settings: without oxidation
T1 construct: purchased Sigma-Aldrich GmbH (Steinheim, Germany)
Experimental: (§1) LiChrospher 10 × 20 cm HPTLC Silica gel 60 F254s plates (Merck, Darmstadt, Germany) with a layer thickness of 170–190 µm and spherical silica particles with a size of 7 µm were used. The HPTLC plates were immersed twice in 2-propanol for 20 min, each time followed by a drying step at room temperature for 20 min. The plates then were pre-developed with methanol, dried for 20 min at room temperature, heated at 105 °C for 20 min, and stored in a desiccator for further use. The automatic TLC Sampler 4 (ATS 4, CAMAG AG, Muttenz, Switzerland) was used for sample application. The desired sample volumes were sprayed as 6-mm-wide bands onto the HPTLC plates with an application speed of 300 nL/s. The distances of the exterior bands from the edges of the plates were 15 mm. The distance from the bottom edge was 8 mm for all bands. Methanol was used as rinsing solvent. The following further application parameters were used: filling speed 15 µL/s, pre-dosage volume 200 nL, retraction volume 200 nL, rinsing vacuum time 4 s, filling vacuum time 0 s, rinsing cycles 2, and filling cycles 1. The development of the HPTLC plates was realized by the Automated Multiple Development 2 (AMD 2, CAMAG, Muttenz, Switzerland). The OTPs, their oxons, and environmental samples were separated with an eluent mixture of cyclohexane, dichloromethane, and acetone in different proportions and with increasing migration distances (Fig. S2). After each development step, a drying step of 3 min under vacuum followed. The final migration distance was 80 mm and the whole procedure took approximately 45 min. In addition, a simpler development process was used containing only the last step of the previous described method.
(§2) After chromatographic development, 10 mL of freshly prepared NBS (100 µg/mL) was sprayed onto the HPTLC plates with a glass reagent sprayer, followed by a 5-min incubation at room temperature. The following AChE-I assay was performed in parts according to Mendoza et al., Stütz et al., and Weins and Jork. AChE was buffered in TRIS/HCl at a pH of 7.8 (2.5 U/mL). The AChE solution was either sprayed onto the HPTLC plates with a glass reagent sprayer until the plates were evenly moist (approx. 10 mL) or the plates were immersed in the AChE solution using the Chromatogram Immersion Device 3 (CID 3, CAMAG, Muttenz, Switzerland). The immersion volume, speed, time, and depth were approx. 200 mL, 2.5 cm/s, 2 s, and approx. 85 mm, respectively. Afterward, the plates were placed separately in closed plastic boxes, which contained paper towels moistened with water to gain a saturated atmosphere. An incubation at 37 °C for 5 min followed. The substrate indoxyl acetate was freshly prepared in methanol at a concentration of 20 mg/mL and 5 mL was sprayed onto the HPTLC plates with a glass reagent sprayer. During 45-min incubation time at room temperature, AChE cleaves the substrate into indoxyl and acetate. The indoxyl reacts with oxygen to the blue indigo dye. When AChE was inhibited, no indigo was produced and the spot stayed white. The TLC Scanner 3 (CAMAG, Muttenz, Switzerland) was used to scan each track on the plates at 670 nm using the fluorescence mode without optical filter. The CAMAG-embedded software Wincats (Vers. 1.4.9) was used to provide chromatograms of each track and to evaluate inhibition zones.
Several amounts of an OTP mix and an oxon mix were applied on HPTLC plates (Tab. S2) and tested as described in the “Combination of HPTLC and AChE-inhibition assay” section. Three plates were used for each dilution series. The application volume was 10 µL for investigating OTPs with following oxidation and 100 µL for testing OTPs without following oxidation. The application volume for the oxons was 10 µL. They were tested without oxidation step also in triplicates. The peak heights were used for evaluation. Only peaks that have a signal-to-noise ratio ≥ 3 were considered in the evaluation. The height next to the respective peak defines the noise. […]

[2] = molecular target: T1, AChE from electric eel (Electrophorus electricus); assay: Recovery of AChE-I effect peak area in spiked water samples after SPE and HPTLC-Ox-AChE-I (spray); settings: for Recovery of the effect peak area related to positive control (100%): spiked 100 ng OTP, SPE, 10 ng/spot, NBS oxidation, spray, ± SD, n = 4; for AChE-I effect recoveries in comparison to the positive control, range over samples: samples from stormwater retention basin and receiving stream, after SPE and HPTLC-Ox-AChE-I
Experimental: The samples were enriched by SPE within 24 h after sampling. Moreover, the field blank and water for a SPE blank were enriched in the same way. For additional matrix investigations, 1 mL malathion, parathion, and chlorpyrifos (100 ng/mL in methanol) were spiked into native samples taken in August 2020 and a water control before being loaded on the SPE cartridges. The cartridges (150 mg, Oasis HLB 6 cc, Waters GmbH, Eschborn, Germany) were conditioned with methanol (2 × 5 mL) and equilibrated with water (2 × 5 mL), before being loaded with 1000 ± 5 mL sample (the exact volume was determined by weighting) through a polytetrafluoroethylene tube. After drying the cartridges under vacuum, they were stored at − 18 °C until further usage. The cartridges were eluted with methanol (5 × 5 mL) that was evaporated afterward at 60 °C under a gentle nitrogen gas stream. The dried extracts were redissolved in 1 mL methanol to achieve a nominal 1000-fold enrichment.
The extracts, spiked samples, positive controls (PC: mix of malathion, parathion, and chlorpyrifos), and blanks were tested with the HPTLC-Ox-AChE-I method as described in the “Combination of HPTLC and AChE-inhibition assay” section. Each sample was tested in duplicates on two HPTLC plates (n = 4). The application volume was 100 µL resulting in a PC of 2000 ng/spot. The resulting amounts for the matrix investigation were 1000 and 10 ng/spot for the PCs and 10 ng/spot for the spiked samples. The matrix investigation was performed with and without the oxidation step. Excel was used to relate the peak areas of the spiked samples to the peak areas of the PCs (10 ng/spot). Differences between both approaches (oxidation and no oxidation) were shown by comparing the results of the spiked samples and PCs.

[3] = molecular target: T1, AChE from electric eel (Electrophorus electricus); assay: HPTLC-(Ox)-AChE-I assay, spray method (AChE sprayed onto plates); assay type: biochemical
Experimental: as §1
as §2, with “The” for “After chromatographic development, 10 mL of freshly prepared NBS (100 µg/mL) was sprayed onto the HPTLC plates with a glass reagent sprayer, followed by a 5-min incubation at room temperature. The”
Several amounts of an OTP mix and an oxon mix were applied on HPTLC plates (Tab. S2) and tested as described in the “Combination of HPTLC and AChE-inhibition assay” section. Three plates were used for each dilution series. The application volume was 10 µL for investigating OTPs with following oxidation and 100 µL for testing OTPs without following oxidation. The application volume for the oxons was 10 µL. They were tested without oxidation step also in triplicates. The peak heights were used for evaluation. Only peaks that have a signal-to-noise ratio ≥ 3 were considered in the evaluation. The height next to the respective peak defines the noise.

[4] = molecular target: T1, AChE from electric eel (Electrophorus electricus); assay: AChE-inhibition microtiter assay (Ellman, 96-well, with or without NBS oxidation); assay type: biochemical; settings: no oxidation, 4-PL fit, n = 4
Experimental: Stock solutions (1 mg/mL) of NBS and ascorbic acid were each freshly prepared before the test and then diluted to 10 µg/mL and 100 µg/mL, respectively. The assay was performed with modifications according to Ellman’s method. OTPs, oxons, water, and methanol blanks (15 µL) were each mixed with 15 µL of NBS (10 µg/mL) in a 96-well plate. After an incubation at room temperature for 5 min, the reaction was stopped by adding 15 µL ascorbic acid (100 µg/mL). For the test setup without oxidation, OTPs, oxons, water, and methanol blanks (15 µL) were mixed with 30 µL water per well. Subsequently, 200 µL of a DTNB solution (0.15 mM), buffered in TRIS/HCl at a pH of 7.4, was added to each well of both test setups. Then, 20 µL of an AChE solution (0.5 U/mL), also buffered in TRIS/HCl at a pH of 7.4, was added. An incubation at 30 °C for 30 min without shaking followed. An ATCL solution (0.8 mM) was freshly prepared with water and 30 µL per well was added after incubation. During another incubation at room temperature for 30 min, ATCL was cleaved by AChE into thiocholine and acetic acid. Thiocholine reacts with DTNB to 2-nitro-5-thiobenzoate. The absorbance of the yellow-colored anion was photometrically measured at 405 nm (Sunrise Remote, Tecan Group AG, Männedorf, Schweiz).
Dilution series with eight concentrations of the three OTPs and related oxons (Tab. S1) were freshly prepared from stock solutions (1–10 mg/mL) in methanol. The OTPs and oxons were tested in duplicates with and without prior oxidation in two measurements as described in the “AChE-inhibition microtiter assay” section. Eight water and eight methanol blanks were tested per test setup (oxidation and no oxidation). Of these, two were tested without AChE and two without ATCL. The mean AChE activity (absorption at 405 nm, n = 4) was related to the specific inhibitor dose. The statistic program Prism (version 5.00, Graph Pad Software, San Diego, USA) was used to generate dose–response curves (4-PL fit) and to determine inhibition concentrations (ICs) for the three OTPs and related oxons. The 95% confidence intervals of the curves and the standard deviations of the mean AChE activity were also calculated. The lower boundary of the curves is fixed to 0 and the highest mean activity defines 100%.

[5] = OTPs 100 µL, oxons 10 µL applied, peak heights, n = 3
[6] = Spiked water (ultrapure water control)
[7] = sampling point Stormwater basin
[8] = spray method, without oxidation
[9] = spray method, without oxidation, OTPs 100 µL, oxons 10 µL applied, peak heights, n = 3

T1 sequence (O42275 24-633): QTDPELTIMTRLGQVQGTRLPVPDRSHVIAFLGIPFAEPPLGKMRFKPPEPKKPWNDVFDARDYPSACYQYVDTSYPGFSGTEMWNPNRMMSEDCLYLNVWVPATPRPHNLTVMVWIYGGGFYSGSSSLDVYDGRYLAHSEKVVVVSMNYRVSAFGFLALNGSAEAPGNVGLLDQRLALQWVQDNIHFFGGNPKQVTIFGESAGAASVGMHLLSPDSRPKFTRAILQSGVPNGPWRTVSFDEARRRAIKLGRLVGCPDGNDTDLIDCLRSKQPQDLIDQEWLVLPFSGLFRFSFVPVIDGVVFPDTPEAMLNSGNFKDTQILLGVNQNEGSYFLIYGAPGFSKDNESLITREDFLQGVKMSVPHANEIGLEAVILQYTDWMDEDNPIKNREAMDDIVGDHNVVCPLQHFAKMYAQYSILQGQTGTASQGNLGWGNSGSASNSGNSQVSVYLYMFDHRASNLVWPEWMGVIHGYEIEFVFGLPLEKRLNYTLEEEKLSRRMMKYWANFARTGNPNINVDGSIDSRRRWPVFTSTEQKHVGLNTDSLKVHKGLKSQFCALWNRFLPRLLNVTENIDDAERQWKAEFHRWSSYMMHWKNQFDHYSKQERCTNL

| SMILES | LOD immersion method (first detected AChE-I peak with signal-to-noise ratio ≥ 3) [1] [ng/spot] | IC10 (10% AChE inhibition), best fit [1, 5] [ng/spot] | IC20 (20% AChE inhibition), best fit [1, 5] [ng/spot] | IC50 (50% AChE inhibition), best fit [1, 5] [ng/spot] | IC80 (80% AChE inhibition), best fit [1, 5] [ng/spot] | Recovery of the effect peak area related to positive control (100%) [2, 6] [%] | Recovery of the effect peak area related to positive control (100%) ([2]; sampling point Downstream) [%] | Recovery of the effect peak area related to positive control (100%) [2, 7] [%] | Recovery of the effect peak area related to positive control (100%) ([2]; sampling point Upstream) [%] | LOD spray method (first detected AChE-I peak with signal-to-noise ratio ≥ 3) [3, 8] [ng/spot] | IC10 (10% AChE inhibition), best fit [3, 9] [ng/spot] | IC20 (20% AChE inhibition), best fit [3, 9] [ng/spot] | IC50 (50% AChE inhibition), best fit [3, 9] [ng/spot] | IC80 (80% AChE inhibition), best fit [3, 9] [ng/spot] | IC80 ([4]; read-out: IC20 (inhibition concentration for 20% AChE activity), best fit) [µg/mL] | IC20 ([4]; read-out: IC80 (inhibition concentration for 80% AChE activity), best fit) [µg/mL] | AChE-I effect recoveries in comparison to the positive control, range over samples [2] | Effect of higher NBS concentration on AChE on the HPTLC plate ([3]; 1 mg/mL NBS tested for oxidation on HPTLC plate, application method not stated) |
| --- | --- | --- | --- | --- | --- | --- | --- | --- | --- | --- | --- | --- | --- | --- | --- | --- | --- | --- |
| CCOC(=O)CC(SP(=S)(OC)OC)C(=O)OCC (stereo not shown) [Malathion, malathion] | 250 | 313 | 536 | 1343 | 3363 | 85 ± 6 | 87 ± 12 | 81 ± 8 | 92 ± 11 | 250 | 212 | 493 | 2096 | 8910 | – | – | – | – |
| CCOP(=O)(OCC)Oc1ccc([N+](=O)[O-])cc1 [Paraoxon, paraoxon] | – | 0.60 | 0.99 | – | 5.4 | – | – | – | – | – | 0.79 | 1.2 | – | 5.9 | 0.071 (≈ 0.258 µM) | 0.016 (≈ 0.0581 µM) | – | – |
| CCOP(=S)(OCC)Oc1nc(Cl)c(Cl)cc1Cl [Chlorpyrifos, chlorpyrifos] | 500 | – | – | – | – | 63 ± 4 | 69 ± 5 | 74 ± 5 | 78 ± 7 | 250 | – | – | – | – | – | – | 69–78% | – |
| CCOP(=S)(OCC)Oc1ccc([N+](=O)[O-])cc1 [Parathion, parathion] | 500 | – | – | – | – | 74 ± 3 | 79 ± 13 | 75 ± 9 | 82 ± 10 | 100 | – | – | – | – | – | – | 75–82% | – |
| O=C1CCC(=O)N1Br [NBS, N-Bromosuccinimide] | – | – | – | – | – | – | – | – | – | – | – | – | – | – | – | – | – | lower activity or inhibition of AChE |
